Experimental data reported in PMC3204975, “A Photolyase-Like Protein from Agrobacterium tumefaciens with an Iron-Sulfur Cluster” (PLoS ONE, 2011).

Tests used:
PhrA = target: T1, PhrA (Agrobacterium fabrum, UniProt A9CJC9); assay: UV-vis absorption and blue-light photoreduction of co-purified cofactor; type: binding; conditions: co-purified from E. coli; 24 h dark, then 470 nm light with 10 mM DTT, pH 7.8, 4°C
T1 construct: full gene, N-terminal His6-tag (pQE30UA), expressed in E. coli XL1 blue, tag not reported cut
T1 sequence (A9CJC9 1-479): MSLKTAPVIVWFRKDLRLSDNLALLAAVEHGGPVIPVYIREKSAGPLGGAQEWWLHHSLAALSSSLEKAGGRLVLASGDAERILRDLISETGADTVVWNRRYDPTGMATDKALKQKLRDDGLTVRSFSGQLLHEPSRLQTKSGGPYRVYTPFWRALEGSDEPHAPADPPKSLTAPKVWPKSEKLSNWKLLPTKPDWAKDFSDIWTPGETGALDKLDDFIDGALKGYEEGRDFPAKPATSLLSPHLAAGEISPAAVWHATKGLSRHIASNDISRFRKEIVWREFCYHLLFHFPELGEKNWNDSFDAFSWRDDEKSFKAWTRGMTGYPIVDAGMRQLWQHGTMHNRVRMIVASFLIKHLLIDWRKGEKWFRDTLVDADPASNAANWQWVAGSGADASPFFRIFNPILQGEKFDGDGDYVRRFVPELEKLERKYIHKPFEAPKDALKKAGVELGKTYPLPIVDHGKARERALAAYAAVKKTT

PhrB = target: T2, PhrB (Agrobacterium fabrum, UniProt A9CH39); assay: as above; type: binding; conditions: co-purified from E. coli; 24 h dark, then 470 nm and 405 nm light with 20 mM DTT, pH 7.8, 4°C
T2 construct: full gene (1524 bp, 507 residues), C-terminal 6xHis-tag (pET-21b), expressed in E. coli ER2566, tag not reported cut
T2 sequence (A9CH39 whole entry): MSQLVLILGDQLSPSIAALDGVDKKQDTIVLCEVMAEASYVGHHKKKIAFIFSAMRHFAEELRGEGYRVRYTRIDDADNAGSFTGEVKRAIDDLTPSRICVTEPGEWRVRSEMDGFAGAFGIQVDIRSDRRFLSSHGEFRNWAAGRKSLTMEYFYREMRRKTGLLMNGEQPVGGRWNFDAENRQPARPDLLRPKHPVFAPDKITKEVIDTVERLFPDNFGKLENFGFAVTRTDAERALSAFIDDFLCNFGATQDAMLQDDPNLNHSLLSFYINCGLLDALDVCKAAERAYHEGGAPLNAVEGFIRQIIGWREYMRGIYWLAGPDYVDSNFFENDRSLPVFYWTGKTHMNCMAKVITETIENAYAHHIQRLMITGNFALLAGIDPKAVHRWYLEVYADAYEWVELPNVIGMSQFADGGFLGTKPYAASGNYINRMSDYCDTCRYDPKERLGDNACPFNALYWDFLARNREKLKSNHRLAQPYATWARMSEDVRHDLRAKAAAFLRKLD

Cc1cc2nc3c(=O)[nH]c(=O)nc-3n(C[C@H](O)[C@H](O)[C@H](O)COP(=O)(O)OP(=O)(O)OC[C@H]3O[C@@H](n4cnc5c(N)ncnc54)[C@H](O)[C@@H]3O)c2cc1C [FAD]
UV-vis absorption and blue-light photoreduction of co-purified cofactor (PhrA): a nearly stoichiometric ratio of both cofactors to the PhrA apoprotein was determined
UV-vis absorption and blue-light photoreduction of co-purified cofactor (PhrB): the FAD cofactor in PhrB is photoreduced to the fully reduced FAD state
